Key:
Type in all cases: cell-based
CDK2 = target: T1, CDK2 (Homo sapiens, UniProt P24941); experiment: CDK2 HIBIT PQ (protein quantification), degradation; settings: for CDK2 HIBIT PQ Max (%): Max = Maximum; for DC50: PQ = Protein Quantification
T1 construct: host or cells: HEK293
How it was run: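 DC50 and maximal degradation were derived from a HiBiT lytic readout in HEK293 cells carrying HiBiT-tagged CDK2. Cells were seeded in 384-well plates at 1.6×10^5 cells/well in 50 uL of DMEM with 10% FBS, incubated overnight at 37° C and 5% CO2, treated with compound for 6 hours, and then given 20 μL of HiBiT reagent with 20 minutes of shaking at room temperature before an EnVision reading. Wells with 0.1% DMSO served as the high control and wells with medium only as the low control.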

CDK9 = target: T2, CDK9 (Homo sapiens, UniProt P50750); experiment: CDK9 HIBIT PQ (protein quantification), degradation; settings: for Dmax: Max = Maximum; for DC50: PQ = Protein Quantification
T2 construct: host or cells: HEK293
How it was run: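 HEK293 cells bearing HiBiT-tagged CDK9 were cultured in DMEM with 10% FBS, plated into 384-well plates at 1.6×10^5 cells/well in 50 uL, and left overnight at 37° C and 5% CO2. A HiBiT assay measured CDK9 protein after compound treatment, with 0.1% DMSO-treated cells as the high control and culture medium alone as the low control. These readings gave the maximal degradation, Dmax and DC50.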

CCNE1 = target: T3, CCNE1 (Homo sapiens, UniProt P24864+P24941); experiment: CCNE1 HIBIT PQ (protein quantification), degradation; settings: for CCNE1 HIBIT PQ Max (%): Max = Maximum; for DC50: PQ = Protein Quantification
T3 construct: host or cells: HEK293
How it was run: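 HEK293 cells with HiBiT-tagged CCNE1 were cultured in EMEM containing 10% FBS, plated at 1.6×10⁵ cells/well in 50 uL in 384-well plates and left overnight at 37° C with 5% CO₂. After 6 hours of compound exposure, a HiBiT assay measured CCNE1 protein, with 0.1% DMSO-treated cells as the high control and medium alone as the low control. DC50 and maximal degradation came from these readings.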

T2 sequence (P50750 whole entry): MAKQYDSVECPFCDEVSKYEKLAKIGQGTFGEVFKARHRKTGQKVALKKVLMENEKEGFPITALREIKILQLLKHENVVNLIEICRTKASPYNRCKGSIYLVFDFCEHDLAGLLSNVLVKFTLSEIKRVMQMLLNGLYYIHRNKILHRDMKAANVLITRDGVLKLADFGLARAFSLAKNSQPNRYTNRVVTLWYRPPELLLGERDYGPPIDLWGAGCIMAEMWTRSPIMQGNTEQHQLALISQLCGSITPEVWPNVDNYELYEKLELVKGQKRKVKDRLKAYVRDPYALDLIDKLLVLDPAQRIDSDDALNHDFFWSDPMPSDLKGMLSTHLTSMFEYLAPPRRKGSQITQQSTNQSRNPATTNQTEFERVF

| Structure (SMILES) | CDK2 HIBIT PQ Max (%) (CDK2) | Dmax (CDK9) [%] | DC50 (CDK9) [nM] | CCNE1 HIBIT PQ Max (%) (CCNE1) | DC50 (CDK2) [nM] | DC50 (CCNE1) [nM] |
| --- | --- | --- | --- | --- | --- | --- |
| CC(C)Oc1c(-c2cn[nH]c2)ncn2nc(NC3CCN(S(=O)(=O)c4cccc(CN5CC6(C5)CN(c5ccc7c(c5)CN(C5CCC(=O)NC5=O)C7=O)C6)c4)CC3)nc12 (racemic) [Compound 2] | 46 | 92 | 25.7 | 41 | – | – |
| CC(C)Oc1c(-c2cn[nH]c2)ncn2nc(NC3CCN(S(=O)(=O)c4cccc(CN5CCN(c6cc7c(cc6F)C(=O)N(C6CCC(=O)NC6=O)C7)CC5)c4)CC3)nc12 (racemic) [Compound 3] | 66 | 102 | 19.4 | 64 | 3.12 | 8.88 |
| CC(C)Oc1c(-c2cn[nH]c2)ncn2nc(NC3CCN(S(=O)(=O)c4cccc(CN5CC(c6ccc7c(c6)CN(C6CCC(=O)NC6=O)C7=O)C5)c4)CC3)nc12 (racemic) [Compound 4] | 63 | 4 | – | 65 | 4.14 | 7.1 |
| CC(C)Oc1c(-c2cn[nH]c2)ncn2nc(NC3CCN(S(=O)(=O)N4CCC(CN5CCC(c6cccc7c6n(C)c(=O)n7C6CCC(=O)NC6=O)CC5)CC4)CC3)nc12 (racemic) [Compound 6, rac-(R)-3-(4-(1-((1-((4-((8-isopropoxy-7-(1H-pyrazol-4-yl)-[1,2,4]triazolo[1,5-c]pyrimidin-2-yl)amino)piperidin-1-yl)sulfonyl)piperidin-4-yl)methyl)piperidin-4-yl)-3-methyl-2-oxo-2,3-dihydro-1H-benzo[d]imidazol-1-yl)piperidine-2,6-dione] | 80 | 103 | 1.48 | 73 | 0.59 | 0.88 |
| CC(C)Oc1c(-c2cn[nH]c2)ncn2nc(Nc3ccc(S(=O)(=O)c4cccc(N5CCN(CC6CCN(c7ccc8c(c7)CN(C7CCC(=O)NC7=O)C8=O)CC6)CC5)c4)cc3F)nc12 (racemic) [Compound 9] | 89 | 97 | 11.7 | 72 | 1.44 | 6.38 |

Results, then the compound that gave them:

| CDK2 HIBIT PQ Max (%) (CDK2) | Dmax (CDK9) [%] | DC50 (CDK9) [nM] | CCNE1 HIBIT PQ Max (%) (CCNE1) | DC50 (CDK2) [nM] | DC50 (CCNE1) [nM] | Structure (SMILES) |
| --- | --- | --- | --- | --- | --- | --- |
| 86 | 54 | 25.5 | 60 | 3.76 | 10.6 | CC(C)Oc1c(-c2cn[nH]c2)ncn2nc(Nc3ccc(S(=O)(=O)c4cccc(CN5CC6(C5)CN(c5ccc7c(c5)CN(C5CCC(=O)NC5=O)C7=O)C6)c4)cc3F)nc12 (racemic) [Compound 10] |
| 90 | 50 | – | 65 | 2.25 | 14.4 | CC(C)Oc1c(-c2cn[nH]c2)ncn2nc(Nc3ccc(S(=O)(=O)c4cccc(CN5CCN(c6cc7c(cc6F)C(=O)N(C6CCC(=O)NC6=O)C7)CC5)c4)cc3F)nc12 (racemic) [Compound 11] |
| 89 | 8 | – | 62 | 2.2 | 4.06 | CC(C)Oc1c(-c2cn[nH]c2)ncn2nc(Nc3ccc(S(=O)(=O)c4cccc(CN5CC(c6ccc7c(c6)CN(C6CCC(=O)NC6=O)C7=O)C5)c4)cc3F)nc12 (racemic) [Compound 12] |
| 94 | – | – | 59 | 8.3 | 39.4 | CC(C)Oc1c(-c2cn[nH]c2)ncn2nc(Nc3ccc(S(=O)(=O)c4cccc(CN5CCN(c6ccc7c(N8CCC(=O)NC8=O)nn(C)c7c6)CC5C(C)C)c4)cc3F)nc12 (single isomer, unassigned) [Compound 106] |
| 93 | – | – | 71 | 12 | 63.1 | CC(C)Oc1c(-c2cn[nH]c2)ncn2nc(Nc3ccc(S(=O)(=O)c4cccc(CN5CCN(c6ccc7c(N8CCC(=O)NC8=O)nn(C)c7c6)CC5C(C)C)c4)cc3F)nc12 (single isomer, unassigned) [Compound 107] |

From patent publication US20260062426A1, “CYCLIN DEPENDENT KINASE DEGRADERS AND METHODS OF USE THEREOF” (Differentiated Therapeutics Inc, priority 2023, published 2026)
